These are literature values, as cited in US20080260771A1, “PROSTATE DISORDER(S) PHYTO-NUTRACEUTICAL SYNERGISTIC COMPOSITION” (priority 2006, published 2008).

Data set [1] concerns prostate cancer. Particulars: supranutritional doses of selenium, clinical trials.
Data set [2] concerns human prostate cancer cells. The settings on record: not in normal prostate epithelial cells.
Data set [3] deals with prostate tumor.

In the case of `[Se]` [Selenium], the “reduction of prostate cancer incidence” value in data set [1] is on record as 50%. Also, in data set [2], the apoptotic death entry was “induces rapid apoptotic death”.

Take Vitamin E: the “tumor growth and lung metastases” value in data set [3] was “significantly suppressed tumor growth”.
